Data taken from patent publication US7157430B2, “(Substituted)acyl dipeptidyl inhibitors of the ICE/CED-3 family of cysteine proteases” (Idun Pharmaceuticals, Inc., priority 1998, dated 2007).
pKi: −log10 of the molar value.

Assays:
Type in all cases: biochemical
Conditions in all cases: continuous assay 60 min, reaction initiated by adding enzyme
[1] = target: T1, mICE (Mus musculus, UniProt P29452); assay: Dissociation constant Ki and irreversible rate constant k3 for irreversible inhibitors, ICE
T1 sequence (P29452 123-296 limits assumed): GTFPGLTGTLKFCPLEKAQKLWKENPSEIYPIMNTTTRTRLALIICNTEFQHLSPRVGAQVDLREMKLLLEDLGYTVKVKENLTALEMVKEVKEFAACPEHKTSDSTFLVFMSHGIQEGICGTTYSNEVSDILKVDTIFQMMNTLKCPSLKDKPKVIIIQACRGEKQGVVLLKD
T1 sequence (P29452 315-402 limits assumed): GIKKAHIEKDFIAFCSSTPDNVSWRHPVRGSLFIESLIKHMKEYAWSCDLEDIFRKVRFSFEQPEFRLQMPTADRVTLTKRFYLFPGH
Description: (§1) For the irreversible inhibition of a ICE/ced-3 Family Protease enzyme with a competitive irreversible inhibitor; using the model represented by the following formulas: […]
(§2) The product formation at time t may be expressed as:
(§3) [formula] where E, I, EI and E-I denote the active enzyme, inhibitor, non-covalent enzyme-inhibitor complex and covalent enzyme-inhibitor adduct, respectively. The Ki value is the overall dissociation constant of the reversible binding steps, and k3 is the irreversible rate constant. The [S] and Ks values are the substate concentration and dissociation constant of the substrate bound to the enzyme, respectively. [E]^T is the total enzyme concentration.
(§4) The above equations were used to determine the Ki and k3 values of a given inhibitor bound to a ICE/ced-3 family protease. Thus, a continuous assay was run for sixty minutes at various concentrations of the inhibitor and the substrate. The assay was formulated essentially the same as described above for generating the data in Table 1, except that the reaction was initiated by adding the enzyme to the substrate-inhibitor mixture. The Ki and k3 values were obtained by simulating the product AMC formation as a function of time according to Equation 1.
(§5) The reference compound for this assay was Cbz-ValAlaAsp-CH2F and the values are denoted in Table 2 as “Reference”. The Ki values in Table 2 are in micromolar (μM). The k3/Ki values are in moles^−1 seconds^−1 (M^−1s^−1).

[2] = target: T2, CPP32 (Homo sapiens, UniProt P42574); assay: Dissociation constant Ki and irreversible rate constant k3 for irreversible inhibitors, CPP32
T2 sequence (P42574 29-175 limits assumed): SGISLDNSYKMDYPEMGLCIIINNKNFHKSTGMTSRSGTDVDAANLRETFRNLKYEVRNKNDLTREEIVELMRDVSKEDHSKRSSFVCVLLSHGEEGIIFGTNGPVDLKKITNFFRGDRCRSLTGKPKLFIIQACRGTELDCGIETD
T2 sequence (P42574 176-277 limits assumed): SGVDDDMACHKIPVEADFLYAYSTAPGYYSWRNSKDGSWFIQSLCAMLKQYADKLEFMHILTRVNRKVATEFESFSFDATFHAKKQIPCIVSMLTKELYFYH
Description: as §1, §2, §3, §4, §5

[3] = target: MCH-5 (Homo sapiens, UniProt Q14790); assay: Dissociation constant Ki and irreversible rate constant k3 for irreversible inhibitors, Mch5
Description: as §1, §2, §3, §4, §5

[4] = target: T3, MCH-2 (Homo sapiens, UniProt P55212); assay: Dissociation constant Ki and irreversible rate constant k3 for irreversible inhibitors, Mch2
T3 sequence (P55212 24-179 limits assumed): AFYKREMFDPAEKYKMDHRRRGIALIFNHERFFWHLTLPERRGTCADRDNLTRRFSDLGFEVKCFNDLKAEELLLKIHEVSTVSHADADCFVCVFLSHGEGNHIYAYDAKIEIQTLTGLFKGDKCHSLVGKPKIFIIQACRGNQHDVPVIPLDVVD
T3 sequence (P55212 194-293 limits assumed): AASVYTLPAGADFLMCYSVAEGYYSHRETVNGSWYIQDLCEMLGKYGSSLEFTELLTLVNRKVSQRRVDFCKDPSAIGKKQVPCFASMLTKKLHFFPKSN
Description: as §1, §2, §3, §4, §5

Sequence of MCH-5 (Q14790 217-374 limits assumed, species assumed): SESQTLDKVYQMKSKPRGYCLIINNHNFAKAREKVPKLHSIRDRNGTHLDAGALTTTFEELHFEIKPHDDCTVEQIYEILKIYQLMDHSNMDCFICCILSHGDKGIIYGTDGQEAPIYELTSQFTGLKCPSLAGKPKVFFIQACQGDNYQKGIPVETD
Sequence of MCH-5 (Q14790 385-479 limits assumed, species assumed): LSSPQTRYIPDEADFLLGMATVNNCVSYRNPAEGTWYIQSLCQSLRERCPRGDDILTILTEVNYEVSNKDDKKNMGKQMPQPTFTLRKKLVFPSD

Row | Structure (SMILES) | pKi [1] | mICE k3/Ki [1] | CPP32 k3/Ki [2] | pKi [2] | pKi [3] | MCH-5 k3/Ki [3] | pKi [4] | MCH-2 k3/Ki [4]
1 | CC(C)[C@H](NC(=O)COc1cccc2ccccc12)C(=O)N[C@@H](CC(=O)O)C(=O)COc1cc(C(F)(F)F)nn1-c1ccccc1 [Example 143] | 6.69 | 28,300 M^−1s^−1 | 121,000 M^−1s^−1 | 7.30 | 7.43 | 14,500 M^−1s^−1 | 7.55 | 8,500 M^−1s^−1
2 | COC(=O)c1cc(OCC(=O)[C@H](CC(=O)O)NC(=O)[C@@H](NC(=O)COc2cccc3ccccc23)C(C)C)no1 [Example 144] | 6.90 | 42,500 M^−1s^−1 | 144,000 M^−1s^−1 | 7.27 | 6.81 | 6,340 M^−1s^−1 | 7.15 | 5,800 M^−1s^−1
3 | CC(C)[C@H](NC(=O)COc1ccccc1-c1ccccc1)C(=O)N[C@@H](CC(=O)O)C(=O)COC(=O)c1c(Cl)cccc1Cl [Example 150] | 6.58 | 43,700 M^−1s^−1 | 698,000 M^−1s^−1 | 7.80 | 6.90 | 9,340 M^−1s^−1 | 8.05 | 400,000 M^−1s^−1
4 | CC(C)[C@H](NC(=O)COc1ccccc1-c1ccccc1)C(=O)N[C@@H](CC(=O)O)C(=O)COc1c(F)cc(F)cc1F [Example 151] | 6.46 | 29,600 M^−1s^−1 | 257,000 M^−1s^−1 | 7.49 | 6.57 | 5,900 M^−1s^−1 | 7.64 | 88,100 M^−1s^−1
5 | CC(C)[C@H](NC(=O)COc1ccccc1-c1ccccc1)C(=O)N[C@@H](CC(=O)O)C(=O)COc1c(F)c(F)cc(F)c1F [Example 152] | 6.72 | 29,300 M^−1s^−1 | 241,000 M^−1s^−1 | 7.54 | 7.18 | 16,600 M^−1s^−1 | 7.96 | 191,000 M^−1s^−1

Results, then the compound that gave them:

Row | pKi [1] | mICE k3/Ki [1] | CPP32 k3/Ki [2] | pKi [2] | pKi [3] | MCH-5 k3/Ki [3] | pKi [4] | MCH-2 k3/Ki [4] | Structure (SMILES)
6 | 6.77 | 59,800 M^−1s^−1 | 206,000 M^−1s^−1 | 7.33 | 6.87 | 7,910 M^−1s^−1 | 7.82 | 166,000 M^−1s^−1 | CC(C)[C@H](NC(=O)COc1ccc2ccccc2c1)C(=O)N[C@@H](CC(=O)O)C(=O)COC(=O)c1c(Cl)cccc1Cl [Example 155]
7 | 6.36 | 20,200 M^−1s^−1 | 49,700 M^−1s^−1 | 6.83 | 6.53 | 3,990 M^−1s^−1 | 7.28 | 14,900 M^−1s^−1 | CC(C)[C@H](NC(=O)COc1ccc2ccccc2c1)C(=O)N[C@@H](CC(=O)O)C(=O)COc1c(F)cc(F)cc1F [Example 156]
8 | 6.65 | 39,300 M^−1s^−1 | 53,300 M^−1s^−1 | 6.59 | 7.14 | 11,600 M^−1s^−1 | 7.66 | 72,000 M^−1s^−1 | CC(C)[C@H](NC(=O)COc1ccc2ccccc2c1)C(=O)N[C@@H](CC(=O)O)C(=O)COc1c(F)c(F)cc(F)c1F [Example 157]
9 | 6.77 | 34,300 M^−1s^−1 | 98,200 M^−1s^−1 | 6.96 | 6.58 | 1,610 M^−1s^−1 | 7.66 | 103,000 M^−1s^−1 | CC(C)[C@H](NC(=O)CCOc1cccc2ccccc12)C(=O)N[C@@H](CC(=O)O)C(=O)COC(=O)c1c(Cl)cccc1Cl [Example 158]
10 | 5.86 | 4,580 M^−1s^−1 | 11,700 M^−1s^−1 | 5.93 | 4.97 | 86 M⁻¹ s⁻¹ | 6.95 | 15,000 M^−1s^−1 | CC(C)[C@H](NC(=O)CCOc1cccc2ccccc12)C(=O)N[C@@H](CC(=O)O)C(=O)COc1cc(C(F)(F)F)n(-c2ccccc2)n1 [Example 159]
